Data on 75 compounds can be found in PubChem BioAssay AID504726 (Broad Institute, 2011).

Active and inactive are the calls of the source.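 The calls were made as follows: active = fitted half-maximal concentration for a cytotoxic signal drop no higher than ten times the top valid dose tested; inconclusive = flat curve between -70 and -30 percent, or an unreliable fit; inactive = flat within 30 percent, signal rise, or potency beyond limit.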

The nature of this assay: HeLa cell cytotoxicity, dose response, cytotoxicity control, 24 h, cherry-picked samples (AID 504726).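 Also: 0% = DMSO neutral controls and -100% = mitoxantrone positive controls.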 The conditions noted are these: HeLa viability, CellTiter-Glo ATP luminescence, 24 h; at 35 µM (top of the series).
On to `O=c1ccc2cc3c4c(c2o1)CCCN4CCC3`, for which the activity change, negative = cytotoxicity was -19.7% (inactive). To `CCOc1ccc2noc3c2c1C(=O)c1ccccc1-3` belongs -3.75% (inactive); to `O=C(Cn1c2ccccc2c2nc3n(c(=O)c21)CCS3)Nc1ccccc1C(F)(F)F`, -2.68% (inactive).

`O=c1nc(N2CCOCC2)ccn1-c1nc(-c2ccccc2)sc1-c1ccccc1`: the activity change, negative = cytotoxicity is -8.43% (inactive).

Consider `COCCNC(=O)Cn1cc(/C=C2\C(=O)NC(=O)N(c3cccc(C)c3C)C2=O)c2ccccc21`, for which the activity change, negative = cytotoxicity was -12.7% (inactive). As for `CC(C)N(Cc1ccccc1)C(=O)Cn1c(=O)cnc2ccccc21`, the activity change, negative = cytotoxicity was 0.817% (inactive). In the case of `O=C(CN1CCN(C(=O)CNC(=O)c2ccc3c(c2)OCO3)CC1)Nc1ccc(F)cc1` it was -9.87% (inactive); in that of `Cc1cc(C)n(CC(=O)NNC(=O)CC(C)c2ccccc2)n1` (stereo not given), -9.44% (inactive).

Regarding `CCOC(=O)C1(Cc2cccc(F)c2)CCN(Cc2c(C)nn(CC)c2C)CC1`, the activity change, negative = cytotoxicity is 0.828% (inactive). As to `O=C(Nc1ccc2c(c1)OCO2)N1CCCc2ccccc21`, the activity change, negative = cytotoxicity is -15.9% (inactive). To `CS(=O)(=O)Nc1nc2n(n1)C(c1ccccc1)C=C(c1ccc(Br)cc1)N2` (stereo not given) belongs -2.61% (inactive); to `O=C(O)C(Cc1ccccc1)N1C(=O)/C(=C/C=C/c2ccco2)SC1=S` (stereo not given), -11.4% (inactive); to `Cc1oc2cc(O)ccc2c(=O)c1-c1nncn1-c1ccccc1`, 3.87% (inactive). As for `COc1c2c(nc3occc13)C(CCC(C)(C)O)(OC)C(O)CC2` (stereo not given), the activity change, negative = cytotoxicity was -4.6% (inactive). To `Cc1ccc(S(=O)(=O)/N=C/c2ccc(N(C)C)cc2)cc1` belongs 2.12% (inactive). Consider `O=C(O)c1cccc(-n2cccc2/C=C/[N+](=O)[O-])c1`, for which the activity change, negative = cytotoxicity was -0.655% (inactive). To `CCN(CC)S(=O)(=O)N1CCN(S(=O)(=O)N2CCOCC2)CC1` belongs 1.89% (inactive). To `O=C(O)C1Nc2c(O)cc(Cl)c([N+](=O)[O-])c2C2C=CCC12` (stereo not given) belongs -21.5% (inactive); to `Cc1cccc(C)c1NC(=O)CSc1nnc(-c2ccco2)c(-c2ccco2)n1`, -6.45% (inactive). As for `COc1cc(OC)cc(-c2c(-c3ccsc3)c3cc(Br)ccc3n2C)c1`, the activity change, negative = cytotoxicity is -23.6% (inactive).

With `CN(N=Nc1ccc([N+](=O)[O-])cc1)c1ccccc1`, the activity change, negative = cytotoxicity was -18.3% (inactive). To `Cc1cc(=O)c2c([nH]1)c(C)cc1[nH]c(C)c(C)c12` belongs -3.16% (inactive); to `CCSc1nnc(Cc2cc(=O)[nH]c(=O)[nH]2)n1-c1ccc(F)cc1`, -15.6% (inactive); to `COC(=O)c1cc(N2CCN(C)CC2)nc2ccccc12`, -6.94% (inactive). For the compound `COC(=O)C1=COC(C)C2CN3CCc4c([nH]c5ccccc45)C3CC12` (stereo not given), the activity change, negative = cytotoxicity is -14.1% (inactive).

As to `O=C(CCCN1C(=O)/C(=C\c2ccco2)SC1=S)Nc1ccc(O)cc1C(=O)O`, the activity change, negative = cytotoxicity was 4.85% (inactive). Take `CN1CC=C2C(C#N)=C(N)C(C#N)(C#N)[C@H](c3ccoc3)[C@H]2C1`: the activity change, negative = cytotoxicity was 0.209% (inactive).

For the compound `S=c1[nH]nc([C@@H]2C[C@H]2c2ccccc2)n1-c1ccccc1Cl`, the activity change, negative = cytotoxicity was -6.51% (inactive). With `Cn1c(=O)oc2cc(S(=O)(=O)CCC(=O)N3CCN(c4ccccc4F)CC3)ccc21`, the activity change, negative = cytotoxicity was -1.08% (inactive). In the case of `O=C(O)c1ccc(NS(=O)(=O)c2ccc3c(c2)C2C=CCC2C(c2ccccc2F)N3)cc1` (stereo not given) it was -8.24% (inactive). To `O=C(CC1CCCC1)N1CCN(S(=O)(=O)c2ccccc2)CC1` belongs -13.4% (inactive); to `O=C(CN(Cc1ccccc1F)C(=O)c1csnn1)NCc1ccc2c(c1)OCO2`, -9.28% (inactive); to `COc1ccc(OC)c(N2C(=O)NC(=O)/C(=C\c3ccc([N+](=O)[O-])s3)C2=O)c1`, -3.62% (inactive). Turning to `O=C(NCCCN1CCCC1=O)c1ccc2c(c1)ncn2C1CCCCC1`, the activity change, negative = cytotoxicity was -5.77% (inactive). To `COc1ccc(C)cc1NC(=O)C(OC(=O)c1cnccn1)c1ccccc1` (stereo not given) belongs -9.07% (inactive). With `O=C(CN1C(=O)/C(=C/c2ccco2)SC1=S)Nc1ccc(C(=O)O)c(O)c1`, the activity change, negative = cytotoxicity was -0.625% (inactive). On to `Cc1cc2nc(SCCN3CCOCC3)[nH]c2cc1C`, for which the activity change, negative = cytotoxicity is -23.1% (inactive). With `CCN(Cc1ccccc1)C(=O)c1cccc(S(=O)(=O)N2CCN(Cc3ccccc3)CC2)c1`, the activity change, negative = cytotoxicity was 1.39% (inactive). In the case of `C=CC1=C(C(=O)O)N2C(=O)[C@@H](NC(=O)/C(=N/OCC(=O)O)c3csc(N)n3)[C@H]2SC1` it was -13.9% (inactive); in that of `CN(C)CCCNC(=O)c1ccccc1Oc1ccccc1`, -6.34% (inactive). For the compound `Cc1c(Cl)cccc1NS(=O)(=O)c1ccc2c(c1)C1C=CCC1C(c1ccc(C(=O)O)cc1)N2` (stereo not given), the activity change, negative = cytotoxicity was -10.8% (inactive). As for `O=C(CCn1c(=S)oc2ccccc21)N1CCN(c2ccc(F)cc2)CC1`, the activity change, negative = cytotoxicity was 2.32% (inactive). In the case of `CCCCn1nc(CC(=O)O)c2ccccc2c1=O` it was -0.208% (inactive). As to `CC(=O)N(C(C)=O)N1C(=O)c2cccc3c(N4CCOCC4)ccc(c23)C1=O`, the activity change, negative = cytotoxicity was -2.78% (inactive). Consider `O=C1C(=Cc2ccco2)CCC1=Cc1ccco1`, for which the activity change, negative = cytotoxicity is -6.04% (inactive). In the case of `Cc1ccc(C)c(N2CCN(C(=O)c3cc4ccccn4n3)CC2)c1` it was 3.79% (inactive); in that of `O=c1oc2ccccc2nc1/C=C(\O)c1ccc(Br)cc1`, -12.7% (inactive); in that of `COCCN(C(=O)CN1CCCc2ccccc21)c1c(N)n(Cc2ccccc2)c(=O)[nH]c1=O`, 3.65% (inactive). Consider `CCc1ccc(N2CC(C(=O)OCC(=O)N(CC)c3c(N)n(Cc4ccccc4)c(=O)[nH]c3=O)CC2=O)cc1` (stereo not given), for which the activity change, negative = cytotoxicity is -9.97% (inactive). For the compound `O=C(NC1(O)C(=O)c2ccccc2C1=O)c1c(Cl)cccc1Cl`, the activity change, negative = cytotoxicity is -4.52% (inactive). To `Clc1ccc(-c2nnc3sc(-c4ccc(Br)o4)nn23)cc1` belongs -3.6% (inactive); to `Cc1ccc(NS(=O)(=O)c2ccc(C(=O)NCCCN3CCCC3=O)cc2)cc1`, -5.92% (inactive). For `Nc1nnc(CC(=O)N/N=C/c2cc([N+](=O)[O-])cc(Br)c2O)s1`, the activity change, negative = cytotoxicity was -8.04% (inactive). Turning to `Nc1cc(N)nc(SCC(=O)N2CCCCC2)n1`, the activity change, negative = cytotoxicity was 4.42% (inactive). To `CC(Oc1ccccc1)c1nnc(N)s1` (stereo not given) belongs -3.11% (inactive). To `C=CCOC(=O)C1=C[C@H](c2csc3ccccc23)C[C@H](OCc2ccc(CO)cc2)O1` belongs -9.53% (inactive); to `CC(C)(C)OC(=O)C[C@@H]1C/C=C\C[C@H](CC(=O)N(CCO)Cc2ccccc2)C(=O)N[C@@H](c2ccccc2)COC1=O`, -9.09% (inactive). Turning to `CCC(C)[C@H](NC(=O)[C@@H]1Cc2ccccc2CN1)C(=O)Nc1ccc2c(c1)OCO2` (stereo not given in full), the activity change, negative = cytotoxicity was -9.19% (inactive). Regarding `Cc1cc(=O)oc2cc(OCC(=O)N3CCN(Cc4ccc5c(c4)OCO5)CC3)ccc12`, the activity change, negative = cytotoxicity was -5.71% (inactive).

For `O=C(COc1ccccc1Cc1ccccc1)NCCCN1CCOCC1`, the activity change, negative = cytotoxicity is -9.39% (inactive). As to `COc1ccc(-c2csc(NC(=O)CSc3nc(C)nc4sc(C(=O)O)c(C)c34)n2)cc1`, the activity change, negative = cytotoxicity is -1.52% (inactive). In the case of `CCCCN(C(=O)CSc1nnc(-c2ccc(Cl)cc2)o1)c1c(N)n(CC(C)C)c(=O)[nH]c1=O`, the activity change, negative = cytotoxicity is 5.27% (inactive).

On to `Cc1nc2c(=O)[nH]c(=S)[nH]c2[nH]c1=O`, for which the activity change, negative = cytotoxicity is 1.86% (inactive).

Turning to `CC(=O)NC(C(=O)c1ccccc1)C(=O)c1ccccc1`, the activity change, negative = cytotoxicity is 7.04% (inactive).

For the compound `O=C(O)c1ccc(-n2cccc2/C=C2/NC(=O)N(c3cccc(Cl)c3)C2=O)cc1`, the activity change, negative = cytotoxicity was -3.84% (inactive). To `O=C(O)/C(=C\c1cccs1)Sc1nnc(-c2ccc(F)cc2)o1` belongs 0.075% (inactive); to `O=[N+]([O-])c1cccc(CSc2nc3ccccc3[nH]2)c1`, -8.29% (inactive); to `CC(C)CC(=O)Nc1nnc(CSCc2ccc(F)cc2)s1`, -9.25% (inactive). In the case of `O=C(CN1CC[C@@]2(O)CCCC[C@H]2[C@@H]1c1ccc(F)cc1)NCc1ccco1`, the activity change, negative = cytotoxicity was -5.52% (inactive). In the case of `CC(Cc1ccccc1)NC(=O)NC(C)Cc1ccccc1` (stereo not given) it was -7.16% (inactive).

`Cc1ccc2c(c1)nnn2C1CCN(C(=O)c2cccs2)CC1`: the activity change, negative = cytotoxicity is -7.39% (inactive). In the case of `CCN(CC)C(=O)c1ccc2c(c1)C1C=CCC1C(C(=O)O)N2` (stereo not given) it was -7.76% (inactive).

`COc1ccc(N(C(=O)c2ccc(Cl)cc2)C2=CC3CCC(C2)N3C)cc1` (stereo not given): the activity change, negative = cytotoxicity was -1.73% (inactive). Regarding `Cc1ccc(S(=O)(=O)Nc2ccc(Br)cc2C(NCC(=O)O)c2ccccc2)cc1` (stereo not given), the activity change, negative = cytotoxicity was 0.422% (inactive). To `CCn1c(CN2CCCCC2)nc2cc(S(=O)(=O)N3CCCCC3)ccc21` belongs -13.7% (inactive).
